Measured values taken from patent US20080145358A1, “Method for Determining Responsiveness to Chk1 Inhibitors” (ASTRAZENECA AB, priority 2005, published 2008).

Tests used:
phospho-CHK [1] = assay: Western blot of phospho-CHK after DNA damaging agents in SW620 and or HT29 cells; type: cell-based; conditions: titration of DNA damaging agent, 8 hour incubation
Procedure: Cell were then treated with a titration of DNA damaging agents (SN-38 (CQ International, China), doxorubicin (Sigma-Aldrich, MO) or gemcitabine (CQ International, China)). Cells were then harvested after an 8 hour incubation with DNA damaging agents in Onyx lysis buffer with protease and phosphatase inhibitors (20 mM Tris, 137 mM Na Cl, […], 1% Triton X, 10% glycerol, 1.5 mM MgCl2, 1:100 dilution of Calbiochem Phophatase Inhibitor Cocktail set II, 10 mM β-glycerophosphate, 1 mM DTT, 7 μg/ml PMSF, 20KIU/ml aprotinin, 1 mM Pefabloc, 0.1 mg/ml leupeptin). Protein lysates were then generated, protein concentration determined and equal protein loaded and analyzed by Western blot analysis using a 1:100 dilution of phospho-CHK rabbit monoclonal antibody (Ser 345) (133D3) acquired from Cell Signaling (Beverly, Mass.). […] To further characterize the CHK1 activation, SW620 and HT29 cells were treated with gemcitabine (100 nM) or SN38 (100 nM) and cells harvested at different times (from 30 minutes to 24 hours). […] A panel of tumor cell lines was then examined to determine how broadly in tumor cells CHK was activated and whether p53 status impacted CHK activation. The panel of cell lines were plated and treated for 8 hours with 100 nM of gemcitabine. Cell lysates were harvested and evaluated for phospho-CHK upregulation.

phospho-CHK [2] = assay: Western blot of phospho-CHK in a panel of tumor cell lines; type: cell-based; conditions: 100 nM, 8 hours
Procedure: Cell were then treated with a titration of DNA damaging agents (SN-38 (CQ International, China), doxorubicin (Sigma-Aldrich, MO) or gemcitabine (CQ International, China)). […] Protein lysates were then generated, protein concentration determined and equal protein loaded and analyzed by Western blot analysis using a 1:100 dilution of phospho-CHK rabbit monoclonal antibody ([MUT]) (133D3) acquired from Cell Signaling (Beverly, Mass.). […] A panel of tumor cell lines was then examined to determine how broadly in tumor cells CHK was activated and whether p53 status impacted CHK activation. The panel of cell lines were plated and treated for 8 hours with 100 nM of gemcitabine. Cell lysates were harvested and evaluated for phospho-CHK upregulation.

phospho-CHK [3] = assay: Phospho-CHK immunohistochemistry (IHC) in HeLa or A549 cells, Metamorph quantitation; type: cell-based; conditions: 100 nM gemcitabine, 5 hours, FIG. 1
Procedure: Phospho-CHK regulation was also examined by immunohistochemistry (IHC). […] Cells were fixed with 4% PFA in PBS (8 minutes room temperature), permeabilized with 0.5% Triton-X in PBS, washed with PBS and washed with 0.05% Tween 20 in PBS. Cells were then blocked with 10% Goat serum for 1 hour at room temperature, incubated with 1:50 dilution of phospho-CHK rabbit monoclonal antibody ([MUT]) (133D3) acquired from Cell Signaling (Beverly, Mass.) in 10% goat serum for 90 minutes, washed twice with PBS and once with 05% Tween 20 in PBS. […] Phospho-CHK staining was then quantitated using Metamorph analysis (Universal Imaging Corp, Dowington, Pa.).

phospho-CHK [4] = assay: Western blot of phospho-CHK in H460 (dominant negative p53) xenograft tumors; type: in vivo, nude rats; conditions: 20 mg/kg IV
Procedure: 1×10^7 H460 cells expressing dominant negative p53 were injected into the right flank of male nude rats which had been irradiated with 5 Gy radiation 6 days prior to implantation. At day 20 when the tumors reached a size of […], animals were dosed IV with 20 mg/kg gemcitabine in 0.9% saline. Tumors were then harvested at varying time points including 1.5, 2, 2.5, 4, 6, 8 and 24 hours following gemcitabine dosing.

phospho-CHK [5] = assay: Western blot of phospho-CHK in SW620 cells, gemcitabine and CHK inhibitor combination; type: cell-based; conditions: 8 hours, 100 nM gemcitabine alone or 30, 100 or 500 nM CHK inhibitor alone
Procedure: Cell were then treated with 100 nM gemcitabine or 30 nM, 100 nM or 500 nM CHK inhibitor or a combination of 100 nM gemcitabine and 30 nM, 100 nM or 500 nM for 8 hours. One set of cells were then harvested for Western blot analysis. Media containing compounds were removed from the remaining cells and fresh tissue culture media added back.

phosphorylated CHK1 = assay: Phosphorylated CHK1 staining (H-score) of hair follicles in skin biopsies; type: in vivo, nude mice; conditions: gemcitabine 30 or 60 mg/kg IV alone or Chk inhibitor 5, 20 or 40 mg/kg IV alone, seven hours
Text: Staining was specific to cell nuclei. […] Sections were then quantitated by H-score analysis.

phospho-H2AX = assay: Western blot of phospho-H2AX in SW620 and or A549 cells; type: cell-based; conditions: 5 hour incubation, either compound used alone
Procedure: Cells were then harvested after a 5 hour incubation directly into SDS sample buffer (NuPAGE #NP007). Samples were then sonicated, passed through a 21 gauge needle, heated to 100° C. for 5 minutes, microcentrifuged and analyzed by Western blot analysis. Protein lysates were then generated, protein concentration determined and equal protein loaded and analyzed by Western blot analysis using a 1:5000 dilution of a mouse monoclonal anti-phospho H2AX […] (Upstate, N.Y.).

COc1cccc2c1C(=O)c1c(O)c3c(c(O)c1C2=O)C[C@@](O)(C(=O)CO)C[C@@H]3O[C@H]1C[C@H](N)[C@H](O)[C@H](C)O1 [doxorubicin]
phospho-CHK level by Western blot (phospho-CHK [1]): dose dependent up-regulation

Nc1ccn([C@@H]2O[C@H](CO)[C@@H](O)C2(F)F)c(=O)n1 [gemcitabine]
phospho-CHK level by Western blot (phospho-CHK [1]): dose dependent up-regulation | phospho-CHK level by Western blot (phospho-CHK [2]): upregulated in a panel of tumor cell lines, albeit to different levels | area of phospho-CHK signal relative to nuclear area (phospho-CHK [3]): large increase | time of maximum activation of CHK in tumor (phospho-CHK [4]): 8 h | time to activation of CHK in tumor (phospho-CHK [4]): ≤ 2 h | phospho-CHK in tumor at 24 hours (phospho-CHK [4]; 24 hours after dosing): significantly down-regulated | phospho-CHK level by Western blot, single agent (phospho-CHK [5]): increase in phospho-CHK | phosphorylated CHK1 staining of hair follicles, single agent (phosphorylated CHK1): No staining | phospho-H2AX by Western blot, compound alone (phospho-H2AX): no change or a very modest change

CCc1c2c(nc3ccc(O)cc13)-c1cc3c(c(=O)n1C2)COC(=O)[C@]3(O)CC [SN-38]
phospho-CHK level by Western blot (phospho-CHK [1]): dose dependent up-regulation
